In US10106535B2, “Histone deacetylase inhibitors and compositions and methods of use thereof” (CHDI Foundation, Inc., priority 2013, dated 2018):

Tested on: cellular histone deacetylase enzymatic activity in Jurkat E6-1 cells
Experiment: Inhibition of cellular HDAC activity in Jurkat E6-1 cells, fluorogenic substrate Boc-Lys(Tfa)-AMC
Assay type: cell-based
Details: Homo sapiens, read-out: Cell IC50
Description: Example 50: Analysis of Inhibition of Cellular HDAC Activity with Class IIa Histone Deacetylase (HDAC) Inhibitors
The potency of Class IIa Histone Deacetylase (HDAC) inhibitors is quantified by measuring the cellular histone deacetylase enzymatic activity using the fluorogenic substrate, Boc-Lys(Tfa)-AMC. After penetration in Jurkat E6-1 cells, the substrate is deacetylated to Boc-Lys-AMC. After cell lysis and cleavage by trypsin, the fluorophore AMC is released from the deacetylated substrate only. The fluorescence of the sample is directly related to the histone deacetylase activity in the sample.
Jurkat E6.1 cells are cultured according to standard cell culture protocols in Jurkat E6.1 Growth Media (RPMI without phenol red, 10% FBS, 10 mM HEPES, and 1 mM Sodium Pyruvate). Jurkat E6.1 cells are counted using a Coulter Counter and resuspended in Jurkat E6.1 growth media at a concentration of 75,000 cells/35 μl. 35 μl or 75,000 cells is seeded into Greiner microtitre assay plates. The plates are then incubated at 37° C. and 5% CO2 while other assay components are being prepared.
Serial dilutions of the HDAC inhibitors and control reference compound (1-(5-(3-((4-(1,3,4-oxadiazol-2-yl)phenoxy)methyl)-1,2,4-oxadiazol-5-yl)thiophen-2-yl)-2,2,2-trifluoroethanone) are made by first resuspending the lyophilized compound to a final concentration of 10 mM in 100% DMSO. Stocks of 70 μl aliquots of the 10 mM compound in DMSO are prepared and stored at −20° C. From one stock aliquot of each compound to be tested and the reference compound, a 16-point serial dilution is prepared according to Table 1 using a 125 μl 16-channel Matrix multi-channel pipette.
2 μl (200×) of each diluted solution and each control (full activity: 100% DMSO alone or full inhibition 1 mM) is stamped into V-bottom polypropylene 384-well compound plates using either the Bravo, Janus, or 12.5 μl 16-channel Matrix multi-channel pipette. Each well with the 200× compound solution is diluted 1:20 by the addition of 38 μl Jurkat assay buffer+DMSO (9.5% DMSO, RPMI without phenol red, 0.09% FBS, 9 mM Hepes, and 0.9 mM Sodium Pyruvate equilibrated to room temperature)
5× (500 μM) substrate is prepared just prior to the addition to the assay. The 5× substrate is prepared by diluting a 100 mM Boc-Lys(Tfa)-AMC in DMSO solution 1:200 by adding it drop-wise to Jurkat assay medium (RPMI without phenol red, 0.1% FBS, 10 mM Hepes, and 1 mM Sodium Pyruvate equilibrated to 37° C.) while vortexing at slow speed to prevent precipitation.
10 ml of 3× lysis buffer is prepared with 8.8 ml of 3× stock lysis buffer (50 mM Tris-HCl, pH 8.0, 137 mM NaCl, 2.7 mM KCl, 1 mM MgCl2, 1% Nonidet P40 Substitute equilibrated to room temperature) and 1.2 ml of 3 mg/ml Trypsin equilibrated to room temperature.
5 μl of each solution of 1:20 diluted compound from above is transferred to the Greiner microtitre assay plates with 75,000 cells/well using the Bravo. Cells are then incubated for 2 hours at 37° C. and 5% CO2. The assay is then started by adding 10 μl of 5× (500 μM) substrate to the assay plate using either the Bravo or 16-channel Matrix multi-channel pipette. The cells are then incubated for 3 hours at 37° C. and 5% CO2. Next, 25 μl of 3× lysis buffer is added to each well using either the 125 μl 16 channel pipette or the Bravo. The assay plate is then incubated overnight (15-16 hours) at 37° C. and 5% CO2. The following day, the plates are shaken on an orbital shaker for 1 minute at 900 rpm. Finally the top read fluorescence (Excitation: 355 nm, Emission: 460 nm) is measured using PerkinElmer EnVision.

Row | SMILES | IC50 [nM]
1 | Cc1c(F)cccc1[C@]1(C(=O)NO)C=C(c2ccccc2)CC1 [Example 1, (R)-1-(3-fluoro-2-methylphenyl)-N-hydroxy-3-phenylcyclopent-2-enecarboxamide] | > 50000
2 | Cc1c(F)cccc1[C@@]1(C(=O)NO)C=C(c2ccccc2)CC1 [Example 2, (S)-1-(3-fluoro-2-methylphenyl)-N-hydroxy-3-phenylcyclopent-2-enecarboxamide] | 170
3 | Cc1ccccc1C1=C[C@@](C(=O)NO)(c2cccc(F)c2C)CC1 [Example 3, (R)-1-(3-fluoro-2-methyl-phenyl)-N-hydroxy-3-(o-tolyl)cyclopent-2-ene-1-carboxamide] | 4600
4 | Cc1ccccc1C1=C[C@](C(=O)NO)(c2cccc(F)c2C)CC1 [Example 4, (S)-1-(3-fluoro-2-methyl-phenyl)-N-hydroxy-3-(o-tolyl)cyclopent-2-ene-1-carboxamide] | 360
5 | Cc1c(F)cccc1[C@]1(C(=O)NO)C=C(c2cncc(F)c2)CC1 [Example 5, (R)-1-(3-fluoro-2-methylphenyl)-3-(5-fluoropyridin-3-yl)-N-hydroxycyclopent-2-enecarboxamide] | 6800
6 | Cc1c(F)cccc1[C@@]1(C(=O)NO)C=C(c2cncc(F)c2)CC1 [Example 6, (S)-1-(3-fluoro-2-methylphenyl)-3-(5-fluoropyridin-3-yl)-N-hydroxycyclopent-2-enecarboxamide] | 160
7 | Cc1c(F)cccc1[C@]1(C(=O)NO)C=C(c2cnccn2)CC1 [Example 7, (R)-1-(3-fluoro-2-methylphenyl)-N-hydroxy-3-(pyrazin-2-yl)cyclopent-2-ene carboxamide] | > 50000
8 | Cc1c(F)cccc1[C@@]1(C(=O)NO)C=C(c2cnccn2)CC1 [Example 8, (S)-1-(3-fluoro-2-methylphenyl)-N-hydroxy-3-(pyrazin-2-yl)cyclopent-2-ene carboxamide] | 15700
9 | Cc1ncc(C2=C[C@@](C(=O)NO)(c3cccc(F)c3C)CC2)cn1 [Example 9, (R)-1-(3-fluoro-2-methylphenyl)-N-hydroxy-3-(2-methylpyrimidin-5-yl)cyclopent-2-enecarboxamide] | > 50000
10 | Cc1c(F)cccc1[C@@]1(C(=O)NO)C=C(c2cncc(Cl)c2)CC1 [Example 11, (S)-3-(5-chloropyridin-3-yl)-1-(3-fluoro-2-methylphenyl)-N-hydroxycyclopent-2-enecarboxamide] | 120
11 | Cc1c(F)cccc1[C@@]1(C(=O)NO)C=C(c2ccc3nccnc3c2)CC1 [Example 12, (S)-1-(3-fluoro-2-methylphenyl)-N-hydroxy-3-(quinoxalin-6-yl)cyclopent-2-enecarboxamide] | 20
12 | Cc1c(F)cccc1[C@@]1(C(=O)NO)C=C(c2ccnc(C(F)(F)F)c2)CC1 [Example 13, (S)-1-(3-fluoro-2-methylphenyl)-N-hydroxy-3-(2-(trifluoromethyl)pyridin-4-yl)cyclopent-2-enecarboxamide] | 270
13 | Cc1c(F)cccc1[C@@]1(C(=O)NO)C=C(c2cncnc2)CC1 [Example 14, (S)-1-(3-fluoro-2-methylphenyl)-N-hydroxy-3-(pyrimidin-5-yl)cyclopent-2-enecarboxamide] | 360
14 | Cc1c(F)cccc1[C@@]1(C(=O)NO)C=C(c2ccc(F)cn2)CC1 [Example 15, (S)-1-(3-fluoro-2-methylphenyl)-3-(5-fluoropyridin-2-yl)-N-hydroxycyclopent-2-enecarboxamide] | 310
15 | Cc1c(F)cccc1[C@@]1(C(=O)NO)C=C(c2ccc(C(F)(F)F)nc2)CC1 [Example 16, (S)-1-(3-fluoro-2-methylphenyl)-N-hydroxy-3-(6-(trifluoromethyl)pyridin-3-yl)cyclopent-2-enecarboxamide] | 100
16 | Cc1c(F)cccc1[C@@]1(C(=O)NO)C=C(c2cncc(C(F)(F)F)c2)CC1 [Example 17, (S)-1-(3-fluoro-2-methylphenyl)-N-hydroxy-3-(5-(trifluoromethyl)pyridin-3-yl)cyclopent-2-enecarboxamide] | 200
17 | Cc1c(F)cccc1[C@@]1(C(=O)NO)C=C(c2cnn(C(F)F)c2)CC1 [Example 18, (S)-3-(1-(difluoromethyl)-1H-pyrazol-4-yl)-1-(3-fluoro-2-methylphenyl)-N-hydroxycyclopent-2-enecarboxamide] | 160
18 | Cc1c(F)cccc1[C@@]1(C(=O)NO)C=C(c2cc(F)cnc2C2CC2)CC1 [Example 19, (S)-3-(2-cyclopropyl-5-fluoropyridin-3-yl)-1-(3-fluoro-2-methylphenyl)-N-hydroxycyclopent-2-enecarboxamide] | 500
19 | Cc1c(F)cccc1[C@@]1(C(=O)NO)C=C(c2ccc3nc(C(F)(F)F)cnc3c2)CC1 [Example 20, (S)-1-(3-fluoro-2-methylphenyl)-N-hydroxy-3-(2-(trifluoromethyl)quinoxalin-6-yl)cyclopent-2-enecarboxamide] | 140
20 | Cc1c(F)cccc1[C@@]1(C(=O)NO)C=C(c2ccn3ccnc3c2)CC1 [Example 21, (S)-1-(3-fluoro-2-methylphenyl)-N-hydroxy-3-(imidazo[1,2-a]pyridin-7-yl)cyclopent-2-enecarboxamide] | 60
21 | Cc1c(F)cccc1[C@@]1(C(=O)NO)C=C(c2ccc3onc(C)c3c2)CC1 [Example 22, (S)-1-(3-fluoro-2-methylphenyl)-N-hydroxy-3-(3-methylbenzo[d]isoxazol-5-yl)cyclopent-2-enecarboxamide] | 60
22 | COc1ncc(C2=C[C@](C(=O)NO)(c3cccc(F)c3C)CC2)cc1F [Example 23, (S)-1-(3-fluoro-2-methylphenyl)-3-(5-fluoro-6-methoxypyridin-3-yl)-N-hydroxycyclopent-2-enecarboxamide] | 220
23 | Cc1c(F)cccc1[C@@]1(C(=O)NO)C=C(c2cnc(C3CC3)nc2)CC1 [Example 24, (S)-3-(2-cyclopropylpyrimidin-5-yl)-1-(3-fluoro-2-methylphenyl)-N-hydroxycyclopent-2-enecarboxamide] | 80
24 | Cc1ccc(C2=C[C@](C(=O)NO)(c3cccc(F)c3C)CC2)cn1 [Example 25, (S)-1-(3-fluoro-2-methylphenyl)-N-hydroxy-3-(6-methylpyridin-3-yl)cyclopent-2-enecarboxamide] | 120
25 | Cc1ncc(C2=C[C@](C(=O)NO)(c3cccc(F)c3C)CC2)cc1Cl [Example 26, (S)-3-(5-chloro-6-methylpyridin-3-yl)-1-(3-fluoro-2-methylphenyl)-N-hydroxycyclopent-2-enecarboxamide] | 80
26 | Cc1c(F)cccc1[C@@]1(C(=O)NO)C=C(c2ccnn2C)CC1 [Example 27, (S)-1-(3-fluoro-2-methylphenyl)-N-hydroxy-3-(1-methyl-1H-pyrazol-5-yl)cyclopent-2-enecarboxamide] | 330
27 | Cc1c(F)cccc1[C@@]1(C(=O)NO)C=C(c2cnn(CC(F)(F)F)c2)CC1 [Example 28, (S)-1-(3-fluoro-2-methylphenyl)-N-hydroxy-3-(1-(2,2,2-trifluoroethyl)-1H-pyrazol-4-yl)cyclopent-2-enecarboxamide] | 160
28 | Cc1c(F)cccc1[C@@]1(C(=O)NO)C=C(c2cccc3cnsc23)CC1 [Example 29, (S)-3-(benzo[d]isothiazol-7-yl)-1-(3-fluoro-2-methylphenyl)-N-hydroxycyclopent-2-enecarboxamide] | 200
29 | O=C(NO)C1(c2ccccc2)CC=CC1 [Example 30, N-hydroxy-1-phenyl-cyclopent-3-enecarboxamide] | > 50000
30 | O=C(NO)C1(c2ccccc2F)CC=CC1 [Example 31, 1-(2-fluorophenyl)-N-hydroxy-cyclopent-3-enecarboxamide] | 44500
